Source: US10125138B2, “Triazolotriazinone derivatives having activity a s herbicides” (Syngenta Participations AG, priority 2015, dated 2018)

Assays:
Type in all cases: in vivo
Conditions in all cases: 1000 g/h, evaluated after 13 days, five point scale
Setaria faberi (SETFA) [1] = experiment: Pre-emergence glasshouse herbicide test, Setaria faberi
Procedure: (§1) Seeds of a variety of test species are sown in standard soil in pots (Lolium perenne (LOLPE), Solanum nigrum (SOLNI), Amaranthus retoflexus (AMARE), Setaria faberi (SETFA), Echinochloa crus-galli (ECHCG), Ipomoea hederacea (IPOHE)). After cultivation for one day (pre-emergence) or after 8 days cultivation (post-emergence) under controlled conditions in a glasshouse (at 24/16° C., day/night; 14 hours light; 65% humidity), the plants are sprayed with an aqueous spray solution derived from the formulation of the technical active ingredient in acetone/water (50:50) solution containing 0.5% Tween 20 (polyoxyethelyene sorbitan monolaurate, CAS RN 9005-64-5). […] The test plants are then grown in a glasshouse under controlled conditions in a glasshouse (at 24/16° C., day/night; 14 hours light; 65% humidity) and watered twice daily. After 13 days for pre and post-emergence, the test is evaluated for the percentage damage caused to the plant. The biological activities are shown in the following table on a five point scale (5=80-100%; 4=60-79%; 3=40-59%; 2=20-39%; 1=0-19%).

[2] = system: Amaranthus retoflexus (AMARE); experiment: Pre-emergence glasshouse herbicide test, Amaranthus retoflexus
Procedure: as §1

Solanum nigrum (SOLNI) [3] = experiment: Post-emergence glasshouse herbicide test, Solanum nigrum
Procedure: (§2) Seeds of a variety of test species are sown in standard soil in pots (Lolium perenne (LOLPE), Solanum nigrum (SOLNI), Amaranthus retoflexus (AMARE), Setaria faberi (SETFA), Echinochloa crus-galli (ECHCG), Ipomoea hederacea (IPOHE)). After cultivation for one day (pre-emergence) or after 8 days cultivation (post-emergence) under controlled conditions in a glasshouse (at 24/16° C., day/night; 14 hours light; 65% humidity), the plants are sprayed with an aqueous spray solution derived from the formulation of the technical active ingredient in acetone/water (50:50) solution containing 0.5% Tween 20 (polyoxyethelyene sorbitan monolaurate, CAS RN 9005-64-5). Compounds are applied at 1000 g/h. The test plants are then grown in a glasshouse under controlled conditions in a glasshouse (at 24/16° C., day/night; 14 hours light; 65% humidity) and watered twice daily. After 13 days for pre and post-emergence, the test is evaluated for the percentage damage caused to the plant. The biological activities are shown in the following table on a five point scale (5=80-100%; 4=60-79%; 3=40-59%; 2=20-39%; 1=0-19%).

Lolium perenne (LOLPE) [4] = experiment: Post-emergence glasshouse herbicide test, Lolium perenne
Procedure: as §1

Lolium perenne (LOLPE) [5] = experiment: Pre-emergence glasshouse herbicide test, Lolium perenne
Procedure: as §1

[6] = system: Ipomoea hederacea (IPOHE); experiment: Post-emergence glasshouse herbicide test, Ipomoea hederacea
Procedure: as §1

[7] = system: Echinochloa crus-galli (ECHCG); experiment: Pre-emergence glasshouse herbicide test, Echinochloa crus-galli
Procedure: as §1

Setaria faberi (SETFA) [8] = experiment: Post-emergence glasshouse herbicide test, Setaria faberi
Procedure: as §1

[9] = system: Echinochloa crus-galli (ECHCG); experiment: Post-emergence glasshouse herbicide test, Echinochloa crus-galli
Procedure: as §1

[10] = system: Ipomoea hederacea (IPOHE); experiment: Pre-emergence glasshouse herbicide test, Ipomoea hederacea
Procedure: as §1

[11] = system: Amaranthus retoflexus (AMARE); experiment: Post-emergence glasshouse herbicide test, Amaranthus retoflexus
Procedure: as §1

Solanum nigrum (SOLNI) [12] = experiment: Pre-emergence glasshouse herbicide test, Solanum nigrum
Procedure: as §2

Row | Structure (SMILES) | percentage damage caused to the plant, PRE Application SETFA (Setaria faberi (SETFA) [1]) | percentage damage caused to the plant, PRE Application AMARE [2] | percentage damage caused to the plant, POST Application SOLNI (Solanum nigrum (SOLNI) [3]) | percentage damage caused to the plant, POST Application LOLPE (Lolium perenne (LOLPE) [4]) | percentage damage caused to the plant, PRE Application LOLPE (Lolium perenne (LOLPE) [5]) | percentage damage caused to the plant, POST Application IPOHE [6] | percentage damage caused to the plant, PRE Application ECHCG [7] | percentage damage caused to the plant, POST Application SETFA (Setaria faberi (SETFA) [8]) | percentage damage caused to the plant, POST Application ECHCG [9] | percentage damage caused to the plant, PRE Application IPOHE [10] | percentage damage caused to the plant, POST Application AMARE [11] | percentage damage caused to the plant, PRE Application SOLNI (Solanum nigrum (SOLNI) [12])
1 | CCn1nnnc1NC(=O)c1nn2cnn(-c3ccccc3)c2nc1=O [Compound 1.013] | 5 (5=80-100%) | 5 (5=80-100%) | 5 (5=80-100%) | 5 (5=80-100%) | 5 (5=80-100%) | 5 (5=80-100%) | 5 (5=80-100%) | 5 (5=80-100%) | 5 (5=80-100%) | 5 (5=80-100%) | 5 (5=80-100%) | 5 (5=80-100%)
2 | CCCn1nnnc1NC(=O)c1nn2cnn(-c3ccccc3)c2nc1=O [Compound 1.014] | 5 (5=80-100%) | 5 (5=80-100%) | 5 (5=80-100%) | 5 (5=80-100%) | 5 (5=80-100%) | 5 (5=80-100%) | 5 (5=80-100%) | 5 (5=80-100%) | 5 (5=80-100%) | 5 (5=80-100%) | 5 (5=80-100%) | 5 (5=80-100%)
3 | Cn1nnnc1NC(=O)c1nn2cnn(-c3cccc(Cl)c3)c2nc1=O [Compound 1.018] | 5 (5=80-100%) | 4 (4=60-79%) | 5 (5=80-100%) | 4 (4=60-79%) | 3 (3=40-59%) | 5 (5=80-100%) | 5 (5=80-100%) | 5 (5=80-100%) | 5 (5=80-100%) | 5 (5=80-100%) | 5 (5=80-100%) | 5 (5=80-100%)
4 | Cn1nnnc1NC(=O)c1nn2cnn(-c3ccc(C(F)(F)F)cc3)c2nc1=O [Compound 1.022] | 5 (5=80-100%) | 5 (5=80-100%) | 5 (5=80-100%) | 3 (3=40-59%) | 4 (4=60-79%) | 4 (4=60-79%) | 5 (5=80-100%) | 5 (5=80-100%) | 5 (5=80-100%) | 4 (4=60-79%) | 5 (5=80-100%) | 5 (5=80-100%)
5 | Cc1cccc(-n2ncn3nc(C(=O)Nc4nnnn4C)c(=O)nc23)c1 [Compound 1.026] | 5 (5=80-100%) | 5 (5=80-100%) | 5 (5=80-100%) | 4 (4=60-79%) | 5 (5=80-100%) | 5 (5=80-100%) | 5 (5=80-100%) | 5 (5=80-100%) | 5 (5=80-100%) | 4 (4=60-79%) | 5 (5=80-100%) | 5 (5=80-100%)
6 | O=C(Nc1nnnn1-c1ccccc1)c1nn2cnn(-c3ccccc3)c2nc1=O [Compound 1.027] | 2 (2=20-39%) | 5 (5=80-100%) | 5 (5=80-100%) | 2 (2=20-39%) | 1 (1=0-19%) | 3 (3=40-59%) | 1 (1=0-19%) | 2 (2=20-39%) | 1 (1=0-19%) | 4 (4=60-79%) | 4 (4=60-79%) | 5 (5=80-100%)
7 | CCCn1nnnc1NC(=O)c1nn2cnn(-c3ccccc3C)c2nc1=O [Compound 1.028] | 5 (5=80-100%) | 5 (5=80-100%) | 5 (5=80-100%) | 5 (5=80-100%) | 5 (5=80-100%) | 5 (5=80-100%) | 5 (5=80-100%) | 5 (5=80-100%) | 5 (5=80-100%) | 5 (5=80-100%) | 5 (5=80-100%) | 5 (5=80-100%)
8 | Cc1ccccc1-n1ncn2nc(C(=O)Nc3nnnn3C)c(=O)nc12 [Compound 1.030] | 5 (5=80-100%) | 5 (5=80-100%) | 5 (5=80-100%) | 4 (4=60-79%) | 4 (4=60-79%) | 5 (5=80-100%) | 5 (5=80-100%) | 5 (5=80-100%) | 5 (5=80-100%) | 5 (5=80-100%) | 5 (5=80-100%) | 5 (5=80-100%)
9 | CCCn1nnnc1NC(=O)c1nn2cnn(CCC)c2nc1=O [Compound 1.031] | 4 (4=60-79%) | 5 (5=80-100%) | 5 (5=80-100%) | 5 (5=80-100%) | 5 (5=80-100%) | 5 (5=80-100%) | 5 (5=80-100%) | 5 (5=80-100%) | 5 (5=80-100%) | 5 (5=80-100%) | 5 (5=80-100%) | 5 (5=80-100%)
10 | CCn1nnnc1NC(=O)c1nn2cnn(-c3cccc(Cl)c3)c2nc1=O [Compound 1.033] | 4 (4=60-79%) | 5 (5=80-100%) | 5 (5=80-100%) | 4 (4=60-79%) | 5 (5=80-100%) | 5 (5=80-100%) | 5 (5=80-100%) | 5 (5=80-100%) | 5 (5=80-100%) | 2 (2=20-39%) | 5 (5=80-100%) | 5 (5=80-100%)
